US10376481B2, “Compounds and methods for inhibiting NHE-mediated antiport in the treatment of disorders associated with fluid retention or salt overload and gastrointestinal tract disorders” (ARDELYX, INC, priority 2012, dated 2019)

Experiments:
[1] = biological target: T1, human NHE3 (Homo sapiens, UniProt P48764); experiment: Cell-based assay of NHE-3 activity (pre-incubation inhibition), human; details: for IC50: PS120 fibroblasts stably expressing human NHE3, 10 min pre-incubation with 0-30 μM test compound, read-out: pIC50 (human Preincubation assay) (converted); for % inhibition (human Preincubation assay): PS120 fibroblasts stably expressing human NHE3, pre-incubation with test compound
T1 sequence (P48764 26-834): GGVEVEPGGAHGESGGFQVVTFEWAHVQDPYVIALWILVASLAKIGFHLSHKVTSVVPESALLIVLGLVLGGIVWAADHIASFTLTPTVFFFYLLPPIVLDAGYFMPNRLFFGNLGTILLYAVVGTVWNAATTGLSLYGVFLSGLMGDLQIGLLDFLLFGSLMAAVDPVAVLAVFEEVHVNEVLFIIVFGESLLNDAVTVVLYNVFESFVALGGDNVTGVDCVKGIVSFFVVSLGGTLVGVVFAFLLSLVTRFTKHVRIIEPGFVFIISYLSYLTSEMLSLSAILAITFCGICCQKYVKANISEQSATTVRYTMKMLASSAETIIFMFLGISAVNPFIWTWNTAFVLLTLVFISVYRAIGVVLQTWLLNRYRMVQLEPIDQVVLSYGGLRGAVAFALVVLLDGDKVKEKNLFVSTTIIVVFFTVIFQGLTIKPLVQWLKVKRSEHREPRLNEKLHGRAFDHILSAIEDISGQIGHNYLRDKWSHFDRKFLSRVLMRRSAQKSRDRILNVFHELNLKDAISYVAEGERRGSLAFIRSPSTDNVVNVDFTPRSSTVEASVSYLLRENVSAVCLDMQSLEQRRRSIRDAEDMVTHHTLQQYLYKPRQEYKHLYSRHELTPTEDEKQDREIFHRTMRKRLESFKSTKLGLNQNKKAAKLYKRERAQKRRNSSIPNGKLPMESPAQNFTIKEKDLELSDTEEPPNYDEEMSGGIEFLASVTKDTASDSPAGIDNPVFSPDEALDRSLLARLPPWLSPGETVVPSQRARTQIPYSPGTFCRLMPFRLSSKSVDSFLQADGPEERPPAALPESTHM
Experimental: Rat and human NHE-3-mediated Na^+-dependent H^+ antiport was measured using a modification of the pH sensitive dye method originally reported by Paradiso (Proc. Natl. Acad. Sci. USA. (1984) 81(23): 7436-7440, which is hereby incorporated by reference in its entirety). PS120 fibroblasts stably expressing human NHE3 were obtained from Mark Donowitz (Baltimore, Md.). Opossum kidney (OK) cells were obtained from the ATCC and propagated per their instructions. The rat NHE-3 gene (GenBank M85300) was introduced into OK cells via electroporation, and cells were seeded into 96 well plates and grown overnight. Medium was aspirated from the wells then incubated for 30 min at 37° C. with NH4Cl-HEPES buffer (20 mM NH4Cl, 80 mM NaCl, 50 mM HEPES, 5 mM KCl, 2 mM CaCl2, 1 mM MgCl2, pH 7.4) containing 5 μM BCECF-AM. Cells were washed once with Ammonium free, Nat-free HEPES (100 mM choline, 50 mM HEPES, 10 mM glucose, 5 mM KCl, 2 mM CaCl2, 1 mM MgCl2, pH 7.4) and incubated in the same buffer for 10 minutes at room temperature to lower intracellular pH with 0-30 μM test compound. […] Changes in intracellular pH were monitored using a FLIPR Tetra® (Molecular Devices, Sunnyvale, Calif.) by excitation at λex 439 to 505 nm, and measuring BCECF fluorescence at λem 538 nm. The initial rate of the fluorescence ratio change was used as a measure of NHE-mediated Na^+/H^+ activity, and reported as the change in fluorescence ratio per minute. Initial rates were plotted as the average 2 or more replicates, and pIC50 values were estimated using GraphPad Prism.

[2] = biological target: T1, human NHE3; experiment: Cell-based assay of NHE-3 activity (human NHE3 inhibition assay); parameters: expressed in transfected cells; host or cells: Opossum kidney (OK) cells (ATCC), electroporated; details: OK cells with human NHE-3 gene, BCECF pH recovery, 0-30 μM test compound; read-out: Human NHE3 pIC50 (converted)
Experimental: Rat or human NHE-3-mediated Na^+-dependent H^+ antiport was measured using a modification of the pH sensitive dye method originally reported by Paradiso (Proc. Natl. Acad. Sci. USA. (1984) 81(23): 7436-7440). Opossum kidney (OK) cells were obtained from the ATCC and propagated per their instructions. The rat NHE-3 gene (GenBank M85300) or the human NHE-3 gene (GenBank NM_004174.1) was introduced into OK cells via electroporation, and cells were seeded into 96 well plates and grown overnight. Medium was aspirated from the wells, cells were washed twice with NaCl-HEPES buffer (100 mM NaCl, 50 mM HEPES, 10 mM glucose, 5 mM KCl, 2 mM CaCl2, 1 mM MgCl2, pH 7.4), then incubated for 30 min at room temperature with NH4Cl-HEPES buffer (20 mM NH4Cl, 80 mM NaCl, 50 mM HEPES, 5 mM KCl, 2 mM CaCl2, 1 mM MgCl2, pH 7.4) containing 5 μM bis(acetoxymethyl) 3,3′-(3′,6′-bis(acetoxymethoxy)-5-((acetoxymethoxy)carbonyl)-3-oxo-3H-spiro[isobenzofuran-1,9′-xanthene]-2′,7′-diyl)dipropanoate (BCECF-AM). Cells were washed twice with Ammonium free, Na^+-free HEPES (100 mM choline, 50 mM HEPES, 10 mM glucose, 5 mM KCl, 2 mM CaCl2, 1 mM MgCl2, pH 7.4) and incubated in the same buffer for 10 minutes at room temperature to lower intracellular pH. […] Initial rates were plotted as the average 2 or more replicates, and pIC50 values were estimated using GraphPad Prism.

IC50 [1] [nM]	% inhibition (human Preincubation assay) [1]	IC50 [2] [nM]	Structure (SMILES)
100 to 1000	C (>70%)	< 100	CN(C)[C@H]1Cc2c(Cl)cc(Cl)cc2[C@@H]1Oc1ccc(S(=O)(=O)NCCOCCOCCNC(=O)C(C)(C)C(=O)NCCOCCOCCNS(=O)(=O)c2ccc(O[C@H]3c4cc(Cl)cc(Cl)c4C[C@@H]3N(C)C)cc2)cc1 [Example 36]
< 100	C (>70%)	< 100	O=C(NCCCCNC(=O)NCCOCCOCCNS(=O)(=O)c1ccc(O[C@H]2c3cc(Cl)cc(F)c3C[C@@H]2N2CCCCC2)cc1)NCCOCCOCCNS(=O)(=O)c1ccc(O[C@H]2c3cc(Cl)cc(F)c3C[C@@H]2N2CCCCC2)cc1 [Example 24]
< 100	C (>70%)	< 100	O=C(NCCCCNC(=O)NCCOCCOCCNS(=O)(=O)c1ccc(O[C@H]2c3cc(F)ccc3C[C@@H]2N2CCCCC2)cc1)NCCOCCOCCNS(=O)(=O)c1ccc(O[C@H]2c3cc(F)ccc3C[C@@H]2N2CCCCC2)cc1 [Example 23]
< 100	C (>70%)	< 100	CN(C)[C@H]1Cc2c(F)cc(Cl)cc2[C@@H]1Oc1ccc(S(=O)(=O)NCCOCCOCCNC(=O)NCCCCNC(=O)NCCOCCOCCNS(=O)(=O)c2ccc(O[C@H]3c4cc(Cl)cc(F)c4C[C@@H]3N(C)C)cc2)cc1 [Example 25]
< 100	C (>70%)	< 100	CN(C)[C@H]1Cc2ccc(F)cc2[C@@H]1Oc1ccc(S(=O)(=O)NCCOCCOCCNC(=O)NCCCCNC(=O)NCCOCCOCCNS(=O)(=O)c2ccc(O[C@H]3c4cc(F)ccc4C[C@@H]3N(C)C)cc2)cc1 [Example 22]

The next lines start with the molecule.

Structure (SMILES)	IC50 [1] [nM]	% inhibition (human Preincubation assay) [1]	IC50 [2] [nM]
CN(C)[C@H]1Cc2ccc(Cl)cc2[C@@H]1Oc1ccc(S(=O)(=O)NCCOCCOCCNC(=O)NCCCCNC(=O)NCCOCCOCCNS(=O)(=O)c2ccc(O[C@H]3c4cc(Cl)ccc4C[C@@H]3N(C)C)cc2)cc1 [Example 21]	< 100	C (>70%)	< 100
O=C(NCCCCNC(=O)NCCOCCOCCOCCNS(=O)(=O)c1ccc(O[C@H]2c3ccccc3C[C@@H]2N2CCCCC2)cc1)NCCOCCOCCOCCNS(=O)(=O)c1ccc(O[C@H]2c3ccccc3C[C@@H]2N2CCCCC2)cc1 [Example 16]	< 100	C (>70%)	< 100
CN(C)[C@H]1Cc2ccccc2[C@@H]1Oc1ccc(S(=O)(=O)NCCOCCOCCNC(=O)NCCCCNC(=O)NCCOCCOCCNS(=O)(=O)c2ccc(O[C@H]3c4ccccc4C[C@@H]3N(C)C)cc2)cc1 [Example 20]	< 100	C (>70%)	< 100
O=C(NCCCCNC(=O)NCCOCCOCCNC(=O)Nc1cccc(O[C@H]2c3ccccc3C[C@@H]2N2CCCCC2)c1)NCCOCCOCCNC(=O)Nc1cccc(O[C@H]2c3ccccc3C[C@@H]2N2CCCCC2)c1 [Example 13, 1-{2-[2-(2-{[(3-{[(1S,2S)-2-(piperidin-1-yl)-2,3-dihydro-1H-inden-1-yl]oxy}phenyl)carbamoyl]amino}ethoxy)ethoxy]ethyl}-3-{4-[({2-[2-(2-{[(3-{[(1S,2S)-2-(piperidin-1-yl)-2,3-dihydro-1H-inden-1-yl]oxy}phenyl)carbamoyl]amino}ethoxy)ethoxy]ethyl}carbamoyl)amino]butyl}urea]	> 1000	C (>70%)	100 to 10000
O=C(NCCCCNC(=O)NCCOCCOCCNS(=O)(=O)c1ccc(O[C@H]2c3cc(Cl)cc(Cl)c3C[C@@H]2N2CCCCC2)cc1)NCCOCCOCCNS(=O)(=O)c1ccc(O[C@H]2c3cc(Cl)cc(Cl)c3C[C@@H]2N2CCCCC2)cc1 [Example 15]	< 100	B (40-70%)	> 10000
O=C(NCCCCNC(=O)NCCOCCOCCNS(=O)(=O)c1ccc(O[C@H]2c3cc(Cl)cc(F)c3C[C@@H]2N2CC[C@@H](O)C2)cc1)NCCOCCOCCNS(=O)(=O)c1ccc(O[C@H]2c3cc(Cl)cc(F)c3C[C@@H]2N2CC[C@@H](O)C2)cc1 [Example 4, (S,S,R)—N,N′-(10,17-dioxo-3,6,21,24-tetraoxa-9,11,16,18-tetraazahexacosane-1,26-diyl)bis(4-((1S,2S)-6-chloro-4-fluoro-2-((R)-3-hydroxypyrrolidin-1-yl)-2,3-dihydro-1H-inden-1-yloxy)benzenesulfonamide)]	< 100	C (>70%)	< 100
O=C(NCCCCNC(=O)NCCOCCOCCNS(=O)(=O)c1ccc(O[C@H]2c3ccccc3C[C@@H]2N2CCCCC2)cc1)NCCOCCOCCNS(=O)(=O)c1ccc(O[C@H]2c3ccccc3C[C@@H]2N2CCCCC2)cc1 [Example 14]	< 100	C (>70%)	< 100
CN(C)[C@H]1Cc2c(Cl)cc(Cl)cc2[C@@H]1Oc1ccc(S(=O)(=O)NCCOCCOCCNC(=O)[C@H](O)[C@@H](O)C(=O)NCCOCCOCCNS(=O)(=O)c2ccc(O[C@H]3c4cc(Cl)cc(Cl)c4C[C@@H]3N(C)C)cc2)cc1 [Example 5, (2R,3R)—N1,N4-bis(2-(2-(2-(4-((1S,2S)-4,6-dichloro-2-(dimethylamino)-2,3-dihydro-1H-inden-1-yloxy)phenylsulfonamido)ethoxy)ethoxy)ethyl)-2,3-dihydroxysuccinamide]	< 100	C (>70%)	< 100
